Values quoted from earlier work as cited in patent US20020111317A1, “Sixteen-membered macrolide compounds” (priority 2000, published 2002).

Tests used:
[1] = target: methylated ribosome (e.g., A2058G mutant); conditions: read-out: Kd using methylated ribosome
wildtype ribosomes = conditions: read-out: Kd using wildtype ribosomes

Structure (SMILES)	Kd [1] [nM]	Kd (wildtype ribosomes) [nM]
CC[C@H]1OC(=O)[C@H](C)C(=O)[C@H](C)[C@@H](O[C@@H]2O[C@H](C)C[C@H](N(C)C)[C@H]2O)[C@](C)(OC)C[C@@H](C)C(=O)[C@H](C)[C@H]2N(CCCCn3cnc(-c4cccnc4)c3)C(=O)O[C@]12C [telithromycin]	~58	~1.3
CC[C@H]1OC(=O)[C@H](C)[C@@H](O[C@H]2C[C@@](C)(OC)[C@@H](O)[C@H](C)O2)[C@H](C)[C@@H](O[C@@H]2O[C@H](C)C[C@H](N(C)C)[C@H]2O)[C@](C)(O)C[C@@H](C)C(=O)[C@H](C)[C@@H](O)[C@]1(C)O [erythromycin A]	~190000	~14
